Data as given in ChEMBL document CHEMBL1137000, “Synthesis and antibacterial activity of some novel imidazole-based dicationic quinolinophanes” (2009).
≈ marks a conversion by molar mass, not a printed value.

Experiments:
Assay type in all cases: functional
Staphylococcus aureus = assay: Antibacterial activity against Staphylococcus aureus after 48 hrs by agar well diffusion method
Pseudomonas aeruginosa = assay: Antibacterial activity against Pseudomonas aeruginosa after 48 hrs by agar well diffusion method
Klebsiella pneumoniae = assay: Antibacterial activity against Klebsiella pneumoniae after 48 hrs by agar well diffusion method
Escherichia coli = assay: Antibacterial activity against Escherichia coli after 48 hrs by agar well diffusion method
Vibrio cholerae = assay: Antibacterial activity against Vibrio cholerae after 48 hrs by agar well diffusion method
Shigella sp. = assay: Antibacterial activity against Shigella sp. after 48 hrs by agar well diffusion method

With [Br-].[Br-].c1cc2cc(c1)C[n+]1cn(c3ccccc31)Cc1cc3ccccc3nc1Oc1ccc3ccccc3c1-c1c(ccc3ccccc13)Oc1nc3ccccc3cc1Cn1c[n+](c3ccccc31)C2 as the molecule, how does the MIC (Staphylococcus aureus) read?
Its MIC is 15 µg/mL.

What about the MIC (Pseudomonas aeruginosa) of the same molecule?
Its MIC is 25 µg/mL.

And the MIC (Klebsiella pneumoniae)?
The MIC was 15 µg/mL.

What about the MIC (Escherichia coli) of the same molecule?
The MIC was 15 µg/mL.

What about the MIC (Vibrio cholerae) of the same molecule?
Its MIC is 10 µg/mL.

What about the MIC (Shigella sp.) of the same molecule?
The MIC was 10 µg/mL.

With [Br-].[Br-].c1cc2nc(c1)C[n+]1cn(c3ccccc31)Cc1cc3ccccc3nc1Oc1ccccc1Oc1nc3ccccc3cc1Cn1c[n+](c3ccccc31)C2 as the molecule, how does the MIC (Staphylococcus aureus) read?
The MIC was 35 µg/mL.

What about the MIC (Pseudomonas aeruginosa) of the same molecule?
The MIC was 25 µg/mL.

And the MIC (Klebsiella pneumoniae)?
The MIC was 45 µg/mL.

And the MIC (Escherichia coli)?
Its MIC is 35 µg/mL.

What about the MIC (Vibrio cholerae) of the same molecule?
Its MIC is 30 µg/mL.

And the MIC (Shigella sp.)?
Its MIC is 40 µg/mL.

What does the source list for [Br-].[Br-].c1cc2nc(c1)C[n+]1ccn(c1)Cc1cc3ccccc3nc1Oc1ccc3ccccc3c1-c1c(ccc3ccccc13)Oc1nc3ccccc3cc1Cn1cc[n+](c1)C2?
MIC (Staphylococcus aureus): 15 µg/mL; MIC (Pseudomonas aeruginosa): 20 µg/mL; MIC (Klebsiella pneumoniae): 15 µg/mL; MIC (Escherichia coli): 10 µg/mL; MIC (Vibrio cholerae): 10 µg/mL; MIC (Shigella sp.): 10 µg/mL

How did the MIC (Staphylococcus aureus) turn out when [Br-].[Br-].c1cc2nc(c1)C[n+]1cn(c3ccccc31)Cc1cc3ccccc3nc1Oc1ccc3ccccc3c1-c1c(ccc3ccccc13)Oc1nc3ccccc3cc1Cn1c[n+](c3ccccc31)C2 was run?
The MIC was 45 µg/mL.

What about the MIC (Pseudomonas aeruginosa) of the same molecule?
Its MIC is 20 µg/mL.

And the MIC (Klebsiella pneumoniae)?
The MIC was 30 µg/mL.

And the MIC (Escherichia coli)?
The MIC was 30 µg/mL.

And the MIC (Vibrio cholerae)?
The MIC was 45 µg/mL.

What about the MIC (Shigella sp.) of the same molecule?
The MIC was 45 µg/mL.

[Br-].[Br-].c1cc2cc(c1)C[n+]1ccn(c1)Cc1cc3ccccc3nc1Oc1ccc3ccccc3c1-c1c(ccc3ccccc13)Oc1nc3ccccc3cc1Cn1cc[n+](c1)C2 was tested. Which MIC (Staphylococcus aureus) did it give?
The MIC was 15 µg/mL.

What about the MIC (Pseudomonas aeruginosa) of the same molecule?
The MIC was 25 µg/mL.

What about the MIC (Klebsiella pneumoniae) of the same molecule?
The MIC was 10 µg/mL.

And the MIC (Escherichia coli)?
Its MIC is 20 µg/mL.

What about the MIC (Vibrio cholerae) of the same molecule?
The MIC was 10 µg/mL.

And the MIC (Shigella sp.)?
The MIC was 15 µg/mL.

What does the source list for [Br-].[Br-].c1cc2cc(c1)C[n+]1ccn(c1)Cc1cc3ccccc3nc1Oc1ccccc1Oc1nc3ccccc3cc1Cn1cc[n+](c1)C2?
MIC (Staphylococcus aureus): 45 µg/mL; MIC (Pseudomonas aeruginosa): 30 µg/mL; MIC (Klebsiella pneumoniae): 40 µg/mL; MIC (Escherichia coli): 30 µg/mL; MIC (Vibrio cholerae): 35 µg/mL; MIC (Shigella sp.): 45 µg/mL

[Br-].[Br-].c1cc2cc(c1)C[n+]1cn(c3ccccc31)Cc1cc3ccccc3nc1Oc1ccccc1Oc1nc3ccccc3cc1Cn1c[n+](c3ccccc31)C2 was tested. Which MIC (Staphylococcus aureus) did it give?
Its MIC is 45 µg/mL.

What about the MIC (Pseudomonas aeruginosa) of the same molecule?
The MIC was 40 µg/mL.

What about the MIC (Klebsiella pneumoniae) of the same molecule?
The MIC was 60 µg/mL.

What about the MIC (Escherichia coli) of the same molecule?
The MIC was 30 µg/mL.

And the MIC (Vibrio cholerae)?
Its MIC is 25 µg/mL.

And the MIC (Shigella sp.)?
Its MIC is 55 µg/mL.

Which MIC (Staphylococcus aureus) does the source give for [Br-].[Br-].c1cc2nc(c1)C[n+]1ccn(c1)Cc1cc3ccccc3nc1Oc1ccccc1Oc1nc3ccccc3cc1Cn1cc[n+](c1)C2 here?
Its MIC is 30 µg/mL.

And the MIC (Pseudomonas aeruginosa)?
Its MIC is 25 µg/mL.

What about the MIC (Klebsiella pneumoniae) of the same molecule?
The MIC was 25 µg/mL.

What about the MIC (Escherichia coli) of the same molecule?
Its MIC is 20 µg/mL.

What about the MIC (Vibrio cholerae) of the same molecule?
Its MIC is 15 µg/mL.

And the MIC (Shigella sp.)?
The MIC was 25 µg/mL.

What does the source list for CN[C@@H]1[C@H](O[C@H]2[C@H](O[C@H]3[C@H](O)[C@@H](O)[C@H](N=C(N)N)[C@@H](O)[C@@H]3N=C(N)N)O[C@@H](C)[C@]2(O)C=O)O[C@@H](CO)[C@H](O)[C@H]1O [STREPTOMYCIN]?
MIC (Staphylococcus aureus): 25 µg/mL (≈ 43 µM); MIC (Pseudomonas aeruginosa): 45 µg/mL (≈ 77.4 µM); MIC (Klebsiella pneumoniae): 25 µg/mL (≈ 43 µM); MIC (Escherichia coli): 20 µg/mL (≈ 34.4 µM); MIC (Vibrio cholerae): 25 µg/mL (≈ 43 µM); MIC (Shigella sp.): 25 µg/mL (≈ 43 µM)
